The text below walks through data of patent US20260022142A1, “MACROCYCLIC IMMUNOMODULATORS” (Bristol-Myers Squibb Company, priority 2022, published 2026).

The structures appear in SMILES notation. Bridge positions count the residues as written; N and C are the ends. Square brackets hold non-standard residues; d marks the D form. Peptide text beside a SMILES is read from it. * marks the point of attachment. Phe(3-CF3) = N[C@@H](Cc1cccc(C(F)(F)F)c1)C(=O)O; Ala(morpholin-4-yl) = N[C@@H](CN1CCOCC1)C(=O)O; Phe(4-COOH) = N[C@@H](Cc1ccc(C(=O)O)cc1)C(=O)O; Bip = N[C@@H](Cc1ccc(-c2ccccc2)cc1)C(=O)O; NH(CH2)14COOH = O=C(O)CCCCCCCCCCCCCCN*; Phe(3-Me) = Cc1cccc(C[C@H](N)C(=O)O)c1; NH(CH2)12COOH = O=C(O)CCCCCCCCCCCCN*; Val(3-OH) = CC(C)(O)[C@H](N)C(=O)O; 4Pal = N[C@@H](Cc1ccncc1)C(=O)O; Cha = N[C@@H](CC1CCCCC1)C(=O)O; Carboxymethyl = O=C(O)C*; Orn = NCCC[C@H](N)C(=O)O; Aun = NCCCCCCCCCCC(=O)O; Dab = NCC[C@H](N)C(=O)O

T1 sequence (Q15116 25-288): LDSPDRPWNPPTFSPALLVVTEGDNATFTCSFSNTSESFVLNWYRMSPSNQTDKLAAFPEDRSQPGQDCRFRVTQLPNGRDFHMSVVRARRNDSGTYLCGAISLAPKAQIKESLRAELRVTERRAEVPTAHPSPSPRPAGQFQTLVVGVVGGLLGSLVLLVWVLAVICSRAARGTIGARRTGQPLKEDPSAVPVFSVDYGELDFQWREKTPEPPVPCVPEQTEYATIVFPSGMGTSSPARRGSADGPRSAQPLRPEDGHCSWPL

The experiment concerns the target T1, PD-1/PD-L1 interaction (PE-labeled human PD-L1-Ig binding to Jurkat cell line over-expressing human PD-1) (Homo sapiens, UniProt Q15116).
T1 construct: expressed in transfected cells; host or cells: Jurkat
The experiment is described as follows: Jurkat-PD-1 Cell Binding High-Content Screening Assay (CBA). The format is cell-based. The conditions noted are these: Jurkat cell line over-expressing human PD-1; PE-labeled PD-L1-Ig 20 nM final; read-out: Jurkat hPD1-PDL1 IC50. The method in brief:
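First, compound is added to PD-1-expressing Jurkat cells in serum-containing DMEM and left 2 h at 37° C. Next, PE-conjugated PD-L1-Ig is introduced at 20 nM final concentration for 1 hour. Finally, cells are fixed in 4% paraformaldehyde with Hoechst 33342, washed and imaged.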
On to `CC(C)C[C@H]1NC(=O)[C@H](CCCN)NC(=O)[C@H](Cc2ccc(C(=O)O)cc2)NC(=O)[C@H](Cc2ccc(-c3ccccc3)cc2)NC(=O)[C@H](Cc2ccc(C(=O)O)cc2)NC(=O)[C@H](Cc2cccc(C(F)(F)F)c2)NC(=O)[C@H](CC(=O)O)NC(=O)[C@H](Cc2ccc(OCC(=O)O)cc2)NC(=O)[C@H](CN2CCOCC2)NC(=O)CSC[C@@H](C(=O)N[C@@H](CCN)C(=O)NCCCCCCCCCCCCC(=O)O)NC(=O)[C@H](CC(=O)O)NC(=O)[C@H](C(C)(C)O)NC(=O)[C@H](CC2CCCCC2)NC(=O)[C@H](CCN)NC1=O` [Compound 2921] ({CH2CO}-[Ala(morpholin-4-yl)]Y(Carboxymethyl)D[Phe(3-CF3)][Phe(4-COOH)][Bip][Phe(4-COOH)][Orn][dL][Dab][Cha][Val(3-OH)]DC[Dab]-{NH(CH2)12COOH}; thioether N-14), for which the IC50 was 20.5 nM. On to `CC(C)C[C@H]1NC(=O)[C@H](CCCN)NC(=O)[C@H](Cc2ccc(C(=O)O)cc2)NC(=O)[C@H](Cc2ccc(-c3ccccc3)cc2)NC(=O)[C@H](Cc2ccc(C(=O)O)cc2)NC(=O)[C@H](Cc2cccc(C(F)(F)F)c2)NC(=O)[C@H](CC(=O)O)NC(=O)[C@H](Cc2ccc(OCC(=O)O)cc2)NC(=O)[C@H](C)NC(=O)CSC[C@@H](C(=O)N[C@@H](CCN)C(=O)NCCCCCCCCCCCCCCC(=O)O)NC(=O)[C@H](Cc2c[nH]cn2)NC(=O)[C@H](C(C)(C)O)NC(=O)[C@H](CC2CCCCC2)NC(=O)[C@H](CCN)NC1=O` [Compound 2922] ({CH2CO}-AY(Carboxymethyl)D[Phe(3-CF3)][Phe(4-COOH)][Bip][Phe(4-COOH)][Orn][dL][Dab][Cha][Val(3-OH)]HC[Dab]-{NH(CH2)14COOH}; thioether N-14), for which the IC50 came to 423 nM. `CC(C)C[C@H]1NC(=O)[C@H](CCCN)NC(=O)[C@H](Cc2ccc(C(=O)O)cc2)NC(=O)[C@H](Cc2ccc(-c3ccccc3)cc2)NC(=O)[C@H](Cc2ccc(C(=O)O)cc2)NC(=O)[C@H](Cc2cccc(C(F)(F)F)c2)NC(=O)[C@H](CC(=O)O)NC(=O)[C@H](Cc2ccc(OCC(=O)O)cc2)NC(=O)[C@H](C)NC(=O)CSC[C@@H](C(=O)N[C@@H](CCN)C(=O)NCCCCCCCCCCCCC(=O)O)NC(=O)[C@H](Cc2c[nH]cn2)NC(=O)[C@H](C(C)(C)O)NC(=O)[C@H](CC2CCCCC2)NC(=O)[C@H](CCN)NC1=O` [Compound 2923] ({CH2CO}-AY(Carboxymethyl)D[Phe(3-CF3)][Phe(4-COOH)][Bip][Phe(4-COOH)][Orn][dL][Dab][Cha][Val(3-OH)]HC[Dab]-{NH(CH2)12COOH}; thioether N-14): the IC50 amounted to 22.5 nM. In the case of `Cc1cccc(C[C@@H]2NC(=O)[C@H](CC(=O)O)NC(=O)[C@H](Cc3ccc(OCC(=O)O)cc3)NC(=O)[C@H](Cc3ccncc3)NC(=O)CSC[C@@H](C(=O)N[C@@H](CCN)C(=O)NCCCCCCCCCCC(=O)O)NC(=O)[C@H]([C@@H](C)O)NC(=O)[C@H](C(C)C)NC(=O)[C@H](CC3CCCCC3)NC(=O)[C@H](CCN)NC(=O)[C@@H](CC(C)C)NC(=O)[C@H](CCCN)NC(=O)[C@H](Cc3ccc(OCC(=O)O)cc3)NC(=O)[C@H](Cc3ccc(-c4ccccc4)cc3)NC(=O)[C@H](Cc3ccc(OCC(=O)O)cc3)NC2=O)c1` [Compound 2924] ({CH2CO}-[4Pal]Y(Carboxymethyl)D[Phe(3-Me)]Y(Carboxymethyl)[Bip]Y(Carboxymethyl)[Orn][dL][Dab][Cha]VTC[Dab][Aun]-OH; thioether N-14), the IC50 was found to be 16.8 nM.
